We go through one substance from patent publication US20100099198A1 (priority 2008, published 2010).

This assay deals with (WT)7 αHL protein pore (Staphylococcus aureus, UniProt P09616). The note with it: pH 7.5.
Sequence of (WT)7 αHL protein pore (P09616 27-319 limits assumed): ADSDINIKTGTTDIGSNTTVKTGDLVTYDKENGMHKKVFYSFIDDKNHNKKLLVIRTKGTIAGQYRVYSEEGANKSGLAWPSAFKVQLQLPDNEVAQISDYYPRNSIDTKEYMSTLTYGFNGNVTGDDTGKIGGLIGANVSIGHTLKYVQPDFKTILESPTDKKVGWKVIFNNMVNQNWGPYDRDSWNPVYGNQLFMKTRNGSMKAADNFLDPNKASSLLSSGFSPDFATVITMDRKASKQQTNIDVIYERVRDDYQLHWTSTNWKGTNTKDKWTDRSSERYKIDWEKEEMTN

In turn, Y-Y-Y-Y-Y-Y [Y6] yielded a dwell time of 1.2 ms.
